Drawing on BindingDB's records for doi:10.1111/cbdd.12265 (Birla Institute of Technology, 2014), this text covers IC50 for 25 compounds.

In the assay the target is T1, Secreted chorismate mutase (Mycobacterium tuberculosis (strain ATCC 25618 / H37Rv), UniProt P9WIB9).
T1 sequence (P9WIB9 whole entry): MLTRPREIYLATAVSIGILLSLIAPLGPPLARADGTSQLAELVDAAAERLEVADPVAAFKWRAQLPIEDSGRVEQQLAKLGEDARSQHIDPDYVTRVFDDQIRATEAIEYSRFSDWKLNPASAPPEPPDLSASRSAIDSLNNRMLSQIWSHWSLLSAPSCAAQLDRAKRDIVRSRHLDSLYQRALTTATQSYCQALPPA
The assay can be described thus: CM Assay. The conditions noted are these: 37 °C. How it is done: The reaction was initiated by the addition of 150pmoles of enzyme to a mixture of inhibitor (40µM, 20 µM, 10 µM, 5 µM, 1 µM and 0.5 µM ), 20µM chorismic acid in 50mM Tris-HCl, 0.5mM EDTA, 0.1mg/ml BSA, 10mM β-mercaptoethanol (pH-7.5). The assay mixture was incubated at 37°C for 5 min and the reaction was terminated by the addition of 40µL of 1N HCl and further incubation at 37°C for 1 to 5 min. Phenyl pyruvate formed at the end of reaction is converted to chromophoric base with the addition of 80µL 2.5N NaOH. The absorbance of each sample was read at 320nm. Positive control contained the assay mixture with carvacrol(40µM, 20 µM, 10 µM, 5 µM, 1 µM and 0.5 µM ).

pIC50: −log10 of the molar value. A value given as a limit tells only on which side of the number the result lay.

By pIC50 is commonly meant the negative decadic logarithm of the IC50, by convention in mol/L. Consider `O=C1Nc2ccc(-c3ccccc3)cc2C1=O`, for which the pIC50 is 4.43.
Under `CN1C(=O)C(=O)c2ccccc21` [1-methyl-2,3-dihydro-1H-indole-2,3-dione] stands 5.71; under `O=C1C(=O)N(c2ccccc2)c2ccccc21` [1-phenyl-2,3-dihydro-1H-indole-2,3-dione], 4.63.
As to `CC(C)(C)C(=O)N1C(=O)C(=O)c2ccccc21` [1‐(2,2‐dimethylpropanoyl)indole‐2,3‐dione (Compound 8)], the negative-log IC50 (pIC50) was 4.39. This pIC50 lies 0.24 log units lower than the previous one.
In the case of `C=CCN1C(=O)C(=O)c2ccccc21` [1‐(prop‐2‐en‐1‐yl)indole‐2,3‐dione (Compound 5)], the pIC50 was 4.02.
As for `CC(=O)n1c(O)c(NC(=S)N=N)c2ccccc21` [1‐[(3Z)‐1‐acetyl‐2‐oxoindol‐3‐ylidene]‐3‐ aminothiourea (Compound 11)], the pIC50 was 4.52. Compared with the last compound, the pIC50 is 0.50 log units higher.
Compound `CC(=O)N1C(=O)C(=NC(=O)NN)c2ccccc21` [1‐[(3Z)‐1‐acetyl‐2‐oxoindol‐3‐ylidene]‐3‐aminourea (Compound 12)] showed a pIC50 of 4.60.
For `CCN1C(=O)C(=O)c2ccccc21` [1‐ethylindole‐2,3‐dione (Compound 3)], the pIC50 is 4.64.
Consider `CC(C)N1C(=O)C(=O)c2ccccc21` [1‐isopropylindole‐2,3‐dione (Compound 4)], for which the negative-log IC50 (pIC50) was 4.12.
Under `O=C1Nc2ccccc2C1=O` [2,3-dihydro-1H-indole-2,3-dione] stands 5.97; under `O=C1Nc2ccccc2/C1=C/c1ccc([N+](=O)[O-])cc1` [3-(4-nitrobenzylidene)indolin-2-one (Compound 24)], 6.00; under `O=C1Nc2ccccc2/C1=C/c1ccc([N+](=O)[O-])s1` [3-((5-nitrothiophen-2-yl)methylene)indolin-2-one (Compound 25)], 6.03.
With `NNC(=S)N=C1C(=O)Nc2ccccc21` [3‐amino‐1‐[(3Z)‐2‐oxo‐1H‐indol‐3‐ylidene]thiourea (Compound 9)], the pIC50 is 4.17. This pIC50 is 1.86 log units lower than that of the compound before.
`NNC(=O)/N=C1\C(=O)Nc2ccccc21` [3‐amino‐1‐[(3Z)‐2‐oxo‐1H‐indol‐3‐ylidene]urea (Compound 10)] gave a pIC50 of 4.27.
Under `O=C1Nc2ccc(-c3cccc(Cl)c3Cl)cc2C1=O` [5‐(2,3‐dichlorophenyl)‐1H‐indole‐2,3‐dione (Compound 17)] stands 4.02; under `Cc1ccc(C)c(-c2ccc3c(c2)C(=O)C(=O)N3)c1` [5‐(2,5‐dimethylphenyl)‐1H‐indole‐2,3‐dione (Compound 18)], 4.44; under `CN1CCN(c2ccc3c(c2)C(=O)C(=O)N3)CC1` [5‐(4‐methylpiperazin‐1‐yl)‐1H‐indole‐2,3‐dione (Compound 20)], 4.50.
The figure for `O=C1Nc2ccc(N3CCNCC3)cc2C1=O` [5‐(piperazin‐1‐yl)‐1H‐indole‐2,3‐dione (Compound 19)] is 4.40; for `O=C1Nc2ccc(N3CCCCC3)cc2C1=O` [5‐(piperidin‐1‐yl)‐1H‐indole‐2,3‐dione (Compound 22)] it is 4.59; for `O=C1Nc2ccc(N3CCN(C(=O)c4ccco4)CC3)cc2C1=O` [5‐[4‐(furan‐2‐carbonyl)piperazin‐1‐yl]‐1H‐indole‐ 2,3‐dione (Compound 23)] it is 4.54.
Under `O=C1Nc2ccc(N3CCN(c4cccc(C(F)(F)F)c4)CC3)cc2C1=O` [5‐{4‐[3‐(trifluoromethyl)phenyl]piperazin‐1‐yl}‐1H‐ indole‐2,3‐dione (Compound 21)] stands 4.25; under `O=NC1C(=O)Nc2ccccc21` (stereo not given) [(3Z)‐3‐(hydroxyimino)‐1H‐indol‐2‐one (Compound 15)], 4.01.
In turn, `O=C1Nc2ccccc2/C1=N/c1ncc([N+](=O)[O-])s1` [(3Z)‐3‐[(5‐nitro‐1,3‐thiazol‐2‐yl)imino]‐1H‐indol‐2‐ one (Compound 13)] gave a pIC50 of less than 4.00.
The figure for `O=C1Nc2ccccc2/C1=N/c1nc2ccc([N+](=O)[O-])cc2s1` [(3Z)‐3‐[(6‐nitro‐1,3‐benzothiazol‐2‐yl)imino]‐1H‐ indol‐2‐one (Compound 14)] is less than 4.00; for `CC(=O)N1C(=O)C(=O)c2ccccc21` [Acetylisatin (Compound 7)] it is 6.00.
